Measured values published in BindingDB's records for PubMed 11259544 (Florida State University, 2001).

Target: Cannabinoid receptor 1 (Taeniopygia guttata, UniProt P56971)
Sequence (P56971 whole entry): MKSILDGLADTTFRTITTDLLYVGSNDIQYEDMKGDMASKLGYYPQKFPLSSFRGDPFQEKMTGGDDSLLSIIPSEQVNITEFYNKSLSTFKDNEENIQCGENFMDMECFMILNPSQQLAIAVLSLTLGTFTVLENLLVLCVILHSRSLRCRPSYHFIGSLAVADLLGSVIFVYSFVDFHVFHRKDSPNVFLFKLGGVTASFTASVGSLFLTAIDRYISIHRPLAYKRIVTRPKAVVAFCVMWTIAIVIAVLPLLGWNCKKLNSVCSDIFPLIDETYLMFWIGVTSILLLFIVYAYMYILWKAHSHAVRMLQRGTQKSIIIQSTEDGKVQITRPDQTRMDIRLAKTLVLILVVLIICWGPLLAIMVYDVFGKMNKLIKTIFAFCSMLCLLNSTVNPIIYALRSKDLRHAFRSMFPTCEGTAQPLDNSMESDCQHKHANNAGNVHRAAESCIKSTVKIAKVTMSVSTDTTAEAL

Structure (SMILES) | Ki [nM]
CCCCC/C=C\C/C=C\C/C=C\C/C=C\CCCC(=O)NC(C)CO (configuration not stated) | 166
CCCCC/C=C\C/C=C\C/C=C\C/C=C\CCCCCC(=O)NCCO | 2790
CCCCCCC(C)(C)c1cc(O)c2c(c1)OC(C)(C)[C@@H]1CC=C(CO)CC21 (stereo partly drawn) [(R)-3-(1,1-Dimethyl-heptyl)-9-hydroxymethyl-6,6-dimethyl-6a,7,10,10a-tetrahydro-6H-benzo[c]chromen-1-ol] | 2.32
CCCCCCC(C)(C)c1ccc([C@H]2C[C@@H](O)CC[C@@H]2CCCO)c(O)c1 [CP-56667 [(+)-AC],XV] | 5.92
CC(=O)Oc1cc(OC(C)CCCc2ccccc2)cc2c1C1CC(O)CCC1C(C)N2 (configuration not stated) [NSC_107822] | 8.24
Cc1c(C(=O)NN2CCCCC2)nn(-c2ccc(Cl)cc2Cl)c1-c1ccc(Cl)cc1 [SR141716] | 89.3
Cc1c(C(=O)c2cccc3ccccc23)c2cccc3c2n1[C@H](CN1CCOCC1)CO3 [WIN55212-2] | 63.3
